{"source": "patent US12544348B2", "about": "“Methods for treating APOE4/4-associated disorders” (The Regents of the University of California, priority 2018, dated 2026)", "format_in_all_cases": "in vivo", "key": {"[1]": {"test_system": "hippocampus of apoE4-KI mice", "experiment": "RNA-Seq analysis of hippocampal tissue of apoE4-KI mice", "procedure": "RNA-Seq analysis of hippocampal tissue. Twelve-month-old apoE3-KI and apoE4-KI mice received daily i.p. injections of vehicle or bumetanide (0.2 mg/kg body weight) for 60 days. Mice were perfused with 0.9% saline, and the hippocampus was dissected and homogenized in Trizol reagent. Total RNA was extracted and purified with the Qiagen RNeasy Micro kit, which included a DNase treatment. cDNA was generated from full-length RNA (50 ng per sample) with the NuGEN RNA-Seq V2 kit, which uses the single primer isothermal amplification method to deplete ribosomal RNA, and sheared by Covaris to yield fragments of uniform size. The NuGen Ultralow system V2 was used for adding adapters and for barcoding and amplification. The resulting RNA libraries were purified with Agencourt XP magnetic beads, and quantified by qPCR after quality control with an Agilent Bioanalyzer. The libraries were pooled and sequenced with a HiSeq 4000 instrument (Illumina) for single-end (SE50) sequencing. Sequence data were aligned with the STAR short read aligner^33 and counts per feature were obtained with the feautureCounts function from the Subread package^34. After alignment, transcripts not shared in the GSE15222 and Syn3157255-MayoEGWAS databases were discarded, as were genes with less than one count per million in two or more samples^35.\nThe DESeq pipeline was used to assess DE of the remaining 11,877 transcripts. Genes below a P value of 0.05 were considered DE for future pathway analysis. After count normalization with DESeq, data were rld transformed (vsn package), and clustering was done on the DE genes with the pheatmap package. PCA was applied to the rld-transformed DE genes. The DE signatures of drugs were analyzed with Ingenuity Pathway Analysis software. Ontology analysis was done using the reference set from the Ingenuity Knowledge Base including direct and indirect gene relationships. For analysis of rank changes of apoE-genotype-specific signature genes of AD, the raw count data from the 11,877 transcripts were rank transformed, and for each gene the average rank of vehicle-treated samples was subtracted from that of bumetanide-treated samples."}, "apoE4-KI mice": {"test_system": "apoE4-KI mice", "experiment": "Morris water maze (MWM) spatial learning and memory, aged apoE4-KI mice", "source_text": "(§1) Mice. All protocols and procedures followed the guidelines of the Laboratory Animal Resource Center at the University of California, San Francisco (UCSF). All mice were housed under identical conditions from birth through death (12-hour light/dark cycle, housed 5/cage, PicoLab Rodent Diet 20). All mouse lines were maintained on a C57Bl/6J background. ApoE3-KI and apoE4-KI homozygous mouse lines (Taconic)^30,31 were born and aged under normal conditions at the Gladstone Institutes/UCSF animal facility. Female apoE-KI mice were used because of their susceptibility to AD-related neuronal and behavioral deficits. The ages of the mice are indicated in the behavioral testing section of the online methods. Bumetanide treatment. Bumetanide was prepared at 220 μM in 2% DMSO in 0.9% sterile saline, adjusted to pH 8.5 with NaOH for solubility, and given by i.p. injection daily starting 6 weeks before and continuing throughout behavioral assessment. Body weight was measured weekly during bumetanide treatment; injection volume was calculated to achieve a dose of 0.02 (low) or 0.2 (high) mg bumetanide/kg body mass (e.g., 50-ul daily injection for a 20-g mouse). Control mice were injected with a matched volume of 2% DMSO in 0.9% sterile saline, pH 8.5. […] Behavioral testing. Mice were singly housed before testing. Each mouse was assigned a random number, so researchers were blinded to genotype and treatment information. At about 14 months of age, apoE3-KI and apoE4-KI mice were randomly assigned to treatment groups: apoE3-KI vehicle (n=10, age 14.01±0.44 months), apoE3-KI low bumetanide (n=11, age 14.30±0.33 months), apoE3-KI high bumetanide (n=10, age 13.74±0.22 months), apoE4-KI vehicle (n=10, age 14.10±0.35), apoE4-KI low bumetanide (n=10, age 14.70±0.27 months), apoE4-KI high bumetanide (n=9, age 13.77±0.28 months). Treatment was administered daily by i.p. injection beginning 6 weeks before and continuing throughout the 14 days of testing in the Morris water maze (MWM); injections were given at the end of the light cycle and after the day's test. The MWM pool (diameter, 122 cm) contained opaque water (22-23° C.) with a platform 10 cm in diameter. The platform was submerged 1.5 cm during hidden platform sessions^20-23,32 and marked with black-and-white-striped mast (15 cm high) during cued training sessions. Mice were trained to locate the hidden platform (hidden days 1-5) and the cued platform (visible days 1-3) in two daily sessions (3.5 h apart), each consisting of two 60-s trials (hidden and cued training) with a 15-min intertrial interval. Distal visual cues on the walls of the behavioral testing room remained constant throughout the test. Visible trials took place after training and memory probes and were 60 seconds long with a cued visible platform. The platform location remained constant in the hidden platform sessions but was changed for each cued (visible) platform session. Entry points were changed semirandomly between trials. At 24, 72, and 120 hours after the last hidden platform training, a 60-s probe trial (platform removed) was done. The entry point for the probe trial was in the southwest quadrant, and the target quadrant was the northeast quadrant. Performance was monitored with an Etho Vision video-tracking system (Noldus Information Technology). For the probe trials, the following analyses were performed (1) the percent time spent in the target quadrant versus average time spent in the three other quadrants, (2) the number of crossings over the position of the target platform versus the average number of crossings over the equivalent positions in the three other quadrants and (3) the distance to platform over the first 10 seconds. Statistical analyses. Behavior metrics are expressed as mean±SEM. All values for n are the numbers of mice or biological replicates. The distribution of data was assessed with the Shapiro-Wilk normality test; most of the data were normally distributed. […]"}, "apoE3-KI mice": {"test_system": "apoE3-KI mice", "experiment": "Morris water maze (MWM) spatial learning and memory, aged apoE3-KI mice", "conditions": "for short-term memory, 24-hour probe trial: vs vehicle-treated apoE3-KI", "source_text": "as §1"}, "[2]": {"conditions": "16-month-old apoE4-KI mice, high dose 0.2 mg/kg daily i.p. 8 weeks"}, "[3]": {"conditions": "apoE4-KI mice, high dose 0.2 mg/kg daily i.p. 8 weeks"}, "[4]": {"conditions": "apoE3-KI mice, high dose 0.2 mg/kg daily i.p. 8 weeks"}, "[5]": {"conditions": "apoE3-KI mice, low dose 0.02 mg/kg daily i.p. 8 weeks"}}}
{"smiles": "CCCCNc1cc(C(=O)O)cc(S(N)(=O)=O)c1Oc1ccccc1", "note": "[bumetanide, 3-(butylamino)-4-phenoxy-5-sulfamoylbenzoic acid]", "values": [{"measurement": "number of significantly perturbed pathways (Ingenuity Pathway Analysis)", "setting": "[1]; DE genes P<0.05, apoE4-KI mouse hippocampus, 0.2 mg/kg i.p. 8 weeks", "value": 71}, {"measurement": "number of enriched pathways shared with apoE4/4 AD in humans", "setting": "[1]; apoE4-KI mouse hippocampus, 0.2 mg/kg i.p. 8 weeks", "value": 6}, {"measurement": "mean change in expression rank of genes downregulated in apoE4/4 AD (n=56)", "setting": "[1]; apoE4-KI mouse hippocampus, 0.2 mg/kg i.p. 8 weeks vs vehicle", "value": "not significantly shifted away from zero"}, {"measurement": "average change in expression rank of the 157 genes upregulated in apoE4/4 human AD", "setting": "[1]; apoE4-KI mouse hippocampus, 0.2 mg/kg i.p. 8 weeks vs vehicle, mean of all genes zero, P<0.001 Monte Carlo, shift toward lower expression", "value": 49.76}, {"measurement": "long-term memory, 120-hour probe trial (time in target quadrant)", "setting": "apoE4-KI mice; [2]", "value": "significant preference for the target quadrant"}, {"measurement": "short-term memory, 24-hour probe trial (percent time in target quadrant)", "setting": "apoE4-KI mice; [2]", "value": "rescued the short-term memory deficit"}, {"measurement": "short-term memory, 24-hour probe trial (percent time in target quadrant)", "setting": "apoE4-KI mice; 16-month-old apoE4-KI mice, low dose 0.02 mg/kg daily i.p. 8 weeks", "value": "rescued the short-term memory deficit"}, {"measurement": "learning curve (escape latency) in hidden platform trials", "setting": "apoE4-KI mice; apoE4-KI mice, 0.02 or 0.2 mg/kg daily i.p. 8 weeks, vs vehicle, learning days 1-5", "value": "did not differ"}, {"measurement": "platform crossings in target quadrant versus other quadrants, 24-hour probe trial", "setting": "apoE4-KI mice; [3]", "value": "significantly more platform crossings in the target quadrant"}, {"measurement": "platform crossings in target quadrant versus other quadrants, 120-hour probe trial", "setting": "apoE4-KI mice; [3]", "value": "significantly more platform crossings in the target quadrant"}, {"measurement": "short-term memory accuracy (platform crossings), 24-hour probe trial", "setting": "apoE4-KI mice; apoE4-KI mice, low dose 0.02 mg/kg daily i.p. 8 weeks", "value": "trend toward significant improvement"}, {"measurement": "long-term memory, 120-hour probe trial (summary paragraph, dose not stated)", "setting": "apoE3-KI mice; aged apoE3-KI mice, dose not stated, vehicle-treated apoE3-KI mice did not", "value": "remembered the hidden platform location"}, {"measurement": "learning curve (escape latency) in hidden platform trials", "setting": "apoE3-KI mice; apoE3-KI mice, 0.02 or 0.2 mg/kg daily i.p. 8 weeks, vs vehicle, learning days 1-5", "value": "did not differ"}, {"measurement": "long-term memory, 120-hour probe trial", "setting": "apoE3-KI mice; [4]", "value": "forgot the hidden platform location"}, {"measurement": "platform crossings in target quadrant versus other quadrants, 24-hour probe trial", "setting": "apoE3-KI mice; [4]", "value": "not apoE3-KI mice"}, {"measurement": "platform crossings in target quadrant versus other quadrants, 120-hour probe trial", "setting": "apoE3-KI mice; [4]", "value": "not apoE3-KI mice"}, {"measurement": "short-term memory, 24-hour probe trial", "setting": "apoE3-KI mice; [4]", "value": "impaired short-term memory"}, {"measurement": "long-term memory, 120-hour probe trial", "setting": "apoE3-KI mice; [5]", "value": "forgot the hidden platform location"}, {"measurement": "short-term memory, 24-hour probe trial", "setting": "apoE3-KI mice; [5]", "value": "performed equally well"}]}
